The text below walks through data of patent US10478425B2, “5-phenylazaindole derivative having AMPK-activating activity” (Shionogi & Co., Ltd., priority 2016, dated 2019).

For data set [1], the system named is phosphorylation of endogenous acetyl-CoA carboxylase (ACC) in L6-GLUT4myc myoblasts. The experiment in a line: Test Example 3: cell-based ELISA of ACC (Ser79) phosphorylation for AMPK activation in L6-GLUT4myc myoblasts. As to conditions: for EC (150% of control): concentration causing 150% relative to vehicle control (100%), 3 hours, phospho-ACC; for Emax: maximum response within varying concentrations, vehicle control = 100%. How it is done:
Cell-based assay for AMPK activation potency of compounds was performed with L6-GLUT4myc myoblasts (J. Biol. Chem. 278:17953-62, 2003) in a 96-well or 384-well plate by detecting the phosphorylation of endogenous acetyl-CoA carboxylase (ACC) using cell-based ELISA method. The cells were seeded in a 96-well plate at a density of 2×10^4 cells per well or in a 384-well plate at a density of 3.5×10^3 cells per well in minimum essential media (α-MEM) supplemented with 10% fetal bovine serum, 100 U/mL penicillin, 100 μg/mL streptomycin, 2 μg/mL blasticidin S hydrochloride and 0.5 mg/mL G418 disulfate, and maintained in a humidified atmosphere of 95% air and 5% CO2 at 37° C. for 24 hours. Following the overnight culture with an assay buffer consisting of 0.1% bovine serum albumin (BSA), 100 U/mL penicillin and 100 μg/mL streptomycin, cells were treated with varying concentrations of compounds or vehicle (dimethyl sulfoxide at a final concentration of 0.33%) in the presence of 0.1% BSA or 4% BSA for 3 hours at room temperature. After fixing cells with ice-cold 4% formaldehyde in Tris-buffered saline (TBS) for 30 min, the fixed cells were rinsed with TBS containing 0.1% or 0.01% Triton X-100 (TBS-T) and quenched with 0.6% hydrogen peroxide in TBS-T, and blocked with a blocking reagent (Blocking One P manufactured by Nacalai Tesque). Then, anti-phospho-ACC (Ser79) antibody as the primary antibody (manufactured by Cell Signaling Technology) diluted with TBS-T containing 5% Blocking One P was added to each well and the plate was incubated overnight at 4° C. After rinsing each well with TBS-T, horseradish peroxidase (HRP)-conjugated anti-rabbit IgG as the secondary antibody diluted with TBS-T containing 5% Blocking One P was added to each well and the plate was incubated for 1 hour in 96-well plate or for 5 hours in 384-well plate at room temperature. Each well of the plate was rinsed with TBS-T and added a chemiluminescent reagent (ImmunoStar® LD manufactured by Wako Pure Chemical Industries) for detection of HRP conjugates. Ten minutes later, the luminescence intensity was measured using luminometer (ViewLux or ARVO manufactured by PerkinElmer). The luminescence in the presence of compound was calculated as the rate of change relative to vehicle control, which is in the absence of compound.
For orientation: In an ELISA, binding on a coated surface is turned into a signal by an enzyme label.

A short description of data set [2]: BA test (oral absorption). The data set is classed as in vivo. As to conditions: rat, plasma; rats; calculated from AUCs of oral and intravenous administration groups. How it is done: • (1) Animals: mice or rats • (2) Animal husbandry: Mice and rats had free access to solid food and sterilized bottled tap water. • (3) Setting of dose and group compositions: orally or intravenously administered at a predetermined dose Group compositions were as shown below. (Dose depends on the compound)
Oral: 1 to 30 mg/kg (n=2 to 3)
Intravenous: 0.5 to 10 mg/kg (n=2 to 3) • (4) Preparation of administration formulation: for oral administration, in a solution or a suspension state; for intravenous administration, in a solubilized state • (5) Dosing procedure: In oral administration study, the test substance was forcibly administered to the stomach by using a gavage tube. In intravenous administration study, the test substance was administered via tail vein using a syringe with a needle. • (6) Evaluation items: Blood was collected at each time point, and plasma concentration of the drug was determined by LC/MS/MS. • (7) Data analysis: Regarding the transition of the plasma concentration, area under the plasma concentration-time curve (AUC) was calculated by means of WinNonlin® program, respectively. Bioavailability (BA) was calculated from AUCs of the oral administration group and intravenous administration group.

The next data set deals with T1, Human AMPK α2β2γ1 (Homo sapiens, UniProt O43741+P54646).
T1 construct: The full length cDNAs of human AMPK β2 (NM_005399.3) and human AMPK α2 (NM_006252.3); The full length cDNAs of human AMPK β2 (NM_005399.3); the full length cDNA of human AMPK γ1 (NM_002733.3) had been inserted into pET28b(+); 6×His (N); made in house; host or cells: Escherichia coli BL21 CodonPlus (DE3)-RIL
T1 sequence (P54646 whole entry): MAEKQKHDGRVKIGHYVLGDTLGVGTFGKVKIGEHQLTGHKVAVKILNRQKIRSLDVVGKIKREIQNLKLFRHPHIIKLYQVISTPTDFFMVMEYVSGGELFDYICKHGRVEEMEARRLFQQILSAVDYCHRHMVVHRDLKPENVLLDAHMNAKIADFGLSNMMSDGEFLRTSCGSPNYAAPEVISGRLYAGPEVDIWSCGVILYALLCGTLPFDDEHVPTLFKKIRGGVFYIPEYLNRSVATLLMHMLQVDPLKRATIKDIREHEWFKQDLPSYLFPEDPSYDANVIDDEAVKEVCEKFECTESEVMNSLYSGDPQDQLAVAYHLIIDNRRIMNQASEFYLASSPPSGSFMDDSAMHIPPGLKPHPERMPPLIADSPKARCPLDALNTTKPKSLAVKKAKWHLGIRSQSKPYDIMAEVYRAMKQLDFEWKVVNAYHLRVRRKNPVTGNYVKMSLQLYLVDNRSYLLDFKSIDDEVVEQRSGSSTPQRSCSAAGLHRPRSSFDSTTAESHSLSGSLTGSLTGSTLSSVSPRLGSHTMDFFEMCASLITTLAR
T1 sequence (O43741 whole entry): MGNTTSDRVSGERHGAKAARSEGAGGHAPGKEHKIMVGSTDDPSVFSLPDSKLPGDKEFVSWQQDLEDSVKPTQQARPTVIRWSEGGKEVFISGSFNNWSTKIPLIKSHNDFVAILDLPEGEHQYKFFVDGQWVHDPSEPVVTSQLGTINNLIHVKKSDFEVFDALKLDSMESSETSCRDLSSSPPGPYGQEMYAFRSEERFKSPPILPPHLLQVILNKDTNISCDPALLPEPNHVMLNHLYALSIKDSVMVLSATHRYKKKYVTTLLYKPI
T1 sequence (P54619 whole entry partner): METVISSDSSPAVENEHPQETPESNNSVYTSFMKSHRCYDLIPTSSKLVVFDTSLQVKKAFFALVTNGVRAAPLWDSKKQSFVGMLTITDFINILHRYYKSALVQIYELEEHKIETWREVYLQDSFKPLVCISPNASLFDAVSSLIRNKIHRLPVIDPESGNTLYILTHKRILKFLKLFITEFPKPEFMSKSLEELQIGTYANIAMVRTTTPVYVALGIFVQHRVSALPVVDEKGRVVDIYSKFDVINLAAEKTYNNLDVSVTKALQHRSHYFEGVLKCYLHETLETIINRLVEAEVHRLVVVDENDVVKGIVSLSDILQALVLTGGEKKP
The experiment in a line: Test Example 2: activation of phosphorylated human AMPK α2β2γ1 (mobility-shift kinase assay, FL-Peptide 7). In kind it is biochemical. As to conditions: for EC150: compound concentration showing 150% relative to the control (100%), human AMPK α2β2γ1 phosphorylated with CaMKK2; for Emax: maximum rate of increase in activity within the measurement range, control = 100%, read-out: Emax. The essentials:
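His-tagged α2β2γ1 expressed in E. coli was pre-phosphorylated by GST-CaMKKβ (25 °C, 1–1.5 h), then exposed to compound for 10 min (1% DMSO). Reaction: pH 7.0 HEPES, ATP and 1.5 μM FL-Peptide 7 (final), 2 h at 25 °C. Mobility-shift conversion gave % activity increase versus compound-free control.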

Some results are limits rather than exact numbers.

One may read the Emax as the size of the effect at its maximum, as opposed to the concentration needed. Usually bioavailability stands for dose-corrected exposure relative to a reference, in per cent. In data set [1], `O=C1NCCC1Oc1ccc(-c2ccc(-c3nc4cc(O[C@@H]5CO[C@H]6[C@@H]5OC[C@H]6O)[nH]c4cc3F)cc2)cc1` (stereo partly shown) [Compound I-1-70] came in with an EC (150% of control) of 0.156 µM and a maximum response (Emax) of 512%. The bioavailability in data set [2] was 25.5%.

In data set [1], `CC(C)(O)COc1ccc(-c2ccc(-c3nc4cc(O[C@@H]5CO[C@H]6[C@@H]5OC[C@H]6O)[nH]c4cc3F)cc2)cc1` [Compound I-2-13] came in with an EC (150% of control) of 0.16 µM and an Emax of 650%. For the same compound, at Human AMPK α2β2γ1, the EC150 came out at 3 nM and the Emax was 652%. The bioavailability in data set [2] is 59%.

In data set [1], `O[C@@H]1CO[C@H]2[C@@H]1OC[C@H]2Oc1cc2nc(-c3ccc(-c4ccc(O[C@@H]5CCOC5)cc4)cc3)c(F)cc2[nH]1` [Compound I-2-84] had an EC (150% of control) of 0.079 µM and an Emax of 684%. Moreover, at Human AMPK α2β2γ1, the EC150 worked out at 4.3 nM and the Emax is 514%. For the same compound, the bioavailability in data set [2] is 52.1%.

On to `O[C@@H]1CO[C@H]2[C@@H]1OC[C@H]2Oc1cc2nc(-c3ccc([C@@H]4CCCC[C@@H]4O)cc3)c(F)cc2[nH]1` [Compound I-2-18], for which, in data set [1], the EC (150% of control) came out at 0.164 µM and the Emax was determined as 612%. Besides, on Human AMPK α2β2γ1, the EC150 was determined as 12 nM and the Emax is 618%. Further, the bioavailability in data set [2] was 18.6%.

On to `COCCNc1ccc(-c2ccc(-c3nc4cc(O[C@@H]5CO[C@H]6[C@@H]5OC[C@H]6O)[nH]c4cc3F)cc2)cc1` [Compound I-2-31], for which, in data set [1], the EC (150% of control) came out at 0.134 µM and the Emax was 656%. In addition, at Human AMPK α2β2γ1, the EC150 came out at 6.8 nM and the Emax stood at 478%. Besides, in data set [2], the bioavailability was 40.5%.

Consider `CS(C)(=O)=Nc1ccc(-c2ccc(-c3nc4cc(O[C@@H]5CO[C@H](CO)C5)[nH]c4cc3F)cc2)cc1` [Compound I-1-47], for which, in data set [1], the EC (150% of control) came to 0.0039 µM and the Emax came out at 547%. On Human AMPK α2β2γ1, the EC150 was 0.96 nM and the Emax was found to be 542%.

With `CN1CCC(Oc2ccc(-c3ccc(-c4nc5cc(O[C@@H]6CO[C@H]7[C@@H]6OC[C@H]7O)[nH]c5cc4F)cc3)cc2)C1=O` (stereo partly shown) [Compound I-2-32], in data set [1], the EC (150% of control) came to 0.086 µM and the Emax was 531%. Moreover, at Human AMPK α2β2γ1, the EC150 is 1.3 nM and the maximal effect (Emax) was 379%. Besides, the bioavailability in data set [2] was 28.6%.

On to `COCCOc1ccc(-c2ccc(-c3nc4cc(O[C@@H]5CO[C@H]6[C@@H]5OC[C@H]6O)[nH]c4cc3F)cc2)cc1` [Compound I-1-66], for which, in data set [1], the EC (150% of control) turned out to be 0.103 µM and the maximal effect (Emax) was determined as 635%. For the same compound, at Human AMPK α2β2γ1, the EC150 was found to be 8.5 nM and the Emax worked out at 333%. The bioavailability in data set [2] is 38.8%.

In data set [1], `CC(=O)N1CCC(Oc2ccc(-c3ccc(-c4nc5cc(O[C@@H]6CO[C@H]7[C@@H]6OC[C@H]7O)[nH]c5cc4F)cc3)cc2)C1` (stereo partly shown) [Compound I-1-27] registered an EC (150% of control) of 0.168 µM and an Emax of 473%. On Human AMPK α2β2γ1, the EC150 is recorded as 5.8 nM and the Emax was determined as 332%. In data set [2], the bioavailability is 19.6%.

In data set [1], `O[C@@H]1CO[C@H]2[C@@H]1OC[C@H]2Oc1cc2nc(-c3ccc(-c4ccc(OC5CCNC5)cc4)cc3)c(F)cc2[nH]1` (stereo partly shown) [Compound I-1-60] came in with an EC (150% of control) of 0.019 µM and an Emax of 495%. On Human AMPK α2β2γ1, the EC150 is below 0.051 nM and the Emax amounted to 486%.

Regarding `C[S+]([O-])c1ccc(-c2ccc(-c3nc4cc(O[C@@H]5CO[C@H]6[C@@H]5OC[C@H]6O)[nH]c4cc3F)cc2)cc1` (stereo partly shown) [Compound I-1-64], in data set [1], the EC (150% of control) turned out to be 0.021 µM and the Emax worked out at 509%. Also, at Human AMPK α2β2γ1, the EC150 came out at 1.6 nM and the Emax came to 375%. Further, the bioavailability in data set [2] is 17.8%.

Consider `CS(C)(=O)=Nc1ccc(-c2ccc(-c3nc4cc(O[C@@H]5CO[C@H](CO)C5)[nH]c4cc3Cl)cc2)cc1` [Compound I-1-02], for which, in data set [1], the EC (150% of control) is 0.0113 µM and the Emax came to 968%. On Human AMPK α2β2γ1, the EC150 is 2.2 nM and the Emax is 510%.
